Each structure is given as a SMILES string.

In data set [1] the test system is Intracellular Adenosine. Set-up: species or system Fischer 344 rats. To be noted: rat, in vivo, po. How it is done: Folinic acid (50 mg/kg) was administered intraperitoneally once daily for fourteen days. […] Hearts were removed from animals and flash frozen in liquid nitrogen within 10 seconds of death. Liver and lungs were removed en bloc and flash frozen within 30 seconds of death. Brain tissue was subsequently dissected.

The conditions of data set [2]: cited from earlier work.

Take `Nc1nc(=O)c2c([nH]1)NCC(CNc1ccc(C(=O)N[C@@H](CCC(=O)O)C(=O)O)cc1)N2C=O` (mixture of isomers) [Folinic Acid (F.A.), folinic acid]: the “adenosine levels in the brain” value in data set [1] is listed as “dramatic increase”.
On to `Nc1ncnc2c1ncn2[C@@H]1O[C@H](CO)[C@@H](O)[C@H]1O` [adenosine], for which, in data set [2], the half life result was “about a second”.

Values taken from patent publication US20030202935A1, “Composition and formulations and their use as nociceptic, anti-axniolytic and anabolic agents” (priority 2000, published 2003).
